From patent publication US9309298B2, “Anti-bacterial polypeptides and pathogen specific synthetic antibodies” (priority 2011, dated 2016)
Bridge positions count the residues as written; N and C are the ends. Square brackets hold non-standard residues; d marks the D form. Ends that are not written are not given here. I, II: the chains in the order shown. * marks the point of attachment. StBu = CC(C)(C)S*

Legend:
[1] = test system: P. aeruginosa; format: cell-based
[2] = test system: S. mutans; format: cell-based
[3] = test system: Staphylococcus aureus; test: Mutant library in vitro inhibition activity, S. aureus; format: cell-based; settings: relative growth after 18 hours of co-incubation
Description: (§1) A library of 340 mutants of original lytic peptide (killing domain in synbody) was synthesized with single amino acid substitutions. Mutants along with original peptide as positive control were tested in vitro for inhibition activity against S. aureus and Pseudomonas aeruginosa. […] Ratio reflect the improvement in activity as “Mutant[Relative growth]/Orignal[Relative growth].

[4] = test system: S. aureus; test: Solution inhibition assay, S. aureus; format: cell-based; settings: negative control synbody
Description: The advantage of the synbody “DR-RW” over the single peptides can be noticed in the range 10-25 uM.

[5] = test system: B. subtilis; format: cell-based
[6] = test system: human cells; format: cell-based
Description: FIG. 2. Graph of cytoxicity data of a composition of the invention in human tissue culture studies.
(§2) GAL80 synbody was used as a negative control with no activity against S. aureus. […] Synbody was abbreviated as “SB”.

[7] = In vivo characterization: immune response and acute toxicity in mice; set-up: species or system CD1 mice
Description: FIG. 3. Graph of immune response cytoxicity data of a composition of the invention in CD1 mice.
as §2

[8] = test system: S. aureus; format: cell-based
[9] = test system: Pseudomonas aeruginosa; test: Mutant library in vitro inhibition activity, Pseudomonas aeruginosa; format: cell-based; settings: relative growth after 18 hours of co-incubation
Description: as §1

Substance: DRIFHKMQHKPYKIKKRGSC
- Avg MIC ± SD, PA [1]: >100 µM
- Avg MIC ± SD, SM [2]: >100 µM

Substance: FWRRHKHFKRPHRKHKR [Mut 14]
- ratio, Mutant[Relative growth]/Orignal[Relative growth] [3]: 1.653

Substance: GAL80 synbody: synbody used as a negative control with no activity against S. aureus (peptide 1 GTEKGTSGWLKTGSC; peptide 2 EGEWTEGKLSLRGSC)
- Activity against S. aureus [4]: no activity

Substance: I: DRIFHKMQHKPYKIKKRGSGGGKC(StBu)-NH2 / II: RWRRHKHFKRPHRKHKRGSG (amide I:23-II:C) [Synbody]
- Avg MIC ± SD, BS [5]: 14 ± 1.1 µM
- Avg MIC ± SD, PA [1]: 22 ± 1.8 µM
- Cytotoxic activity [6]: no cytotoxic activity
- Avg MIC ± SD, SM [2]: >100 µM
- Acute toxicity ([7]; 500 ug dose): no immune response or acute toxicity
- Immune response ([7]; 500 ug dose, FIG. 3): no immune response
- Level of IgG, PBS versus synbody injected mice ([7]; FIG. 3): no difference detected
- Avg MIC ± SD, SA [8]: 14 ± 0.8 µM

Substance: LWRRHKHFKRPHRKHKR [Mut 11]
- ratio, Mutant[Relative growth]/Orignal[Relative growth] [3]: 1.58

Substance: PWRRHKHFKRPHRKHKR [Mut 15]
- ratio, Mutant[Relative growth]/Orignal[Relative growth] [3]: 1.658

Substance: RLRRHKHFKRPHRKHKR [Mut 31]
- ratio, Mutant[Relative growth]/Orignal[Relative growth] [3]: 1.633

Substance: RRRRHKHFKRPHRKHKR [Mut 22]
- ratio, Mutant[Relative growth]/Orignal[Relative growth] [3]: 6.1
- ratio, Mutant[Relative growth]/Orignal[Relative growth] [9]: 2.073

Substance: RWRFHKHFKRPHRKHKR [Mut 74]
- ratio, Mutant[Relative growth]/Orignal[Relative growth] [9]: 1.017

Substance: RWRRAKHFKRPHRKHKR [Mut 81]
- ratio, Mutant[Relative growth]/Orignal[Relative growth] [3]: 1.525

Substance: RWRRFKHFKRPHRKHKR [Mut 94]
- ratio, Mutant[Relative growth]/Orignal[Relative growth] [9]: 1.211

Substance: RWRRHFHFKRPHRKHKR [Mut 114]
- ratio, Mutant[Relative growth]/Orignal[Relative growth] [9]: 10.95

Substance: RWRRHGHFKRPHRKHKR [Mut 108]
- ratio, Mutant[Relative growth]/Orignal[Relative growth] [9]: 1.191

Substance: RWRRHHHFKRPHRKHKR [Mut 109]
- ratio, Mutant[Relative growth]/Orignal[Relative growth] [9]: 1.395

Substance: RWRRHIHFKRPHRKHKR [Mut 110]
- ratio, Mutant[Relative growth]/Orignal[Relative growth] [9]: 4.387

Substance: RWRRHKAFKRPHRKHKR [Mut 121]
- ratio, Mutant[Relative growth]/Orignal[Relative growth] [9]: 2.297

Substance: RWRRHKHFKRDHRKHKR [Mut 204]
- ratio, Mutant[Relative growth]/Orignal[Relative growth] [9]: 2.107

Substance: RWRRHKHFKRFHRKHKR [Mut 214]
- ratio, Mutant[Relative growth]/Orignal[Relative growth] [9]: 1.134

Substance: RWRRHKHFKRMHRKHKR [Mut 213]
- ratio, Mutant[Relative growth]/Orignal[Relative growth] [9]: 1.185

Substance: RWRRHKHFKRPHRKHFR [Mut 314]
- ratio, Mutant[Relative growth]/Orignal[Relative growth] [3]: 1.497

Substance: RWRRHKHFKRPHRKHKF [Mut 334]
- ratio, Mutant[Relative growth]/Orignal[Relative growth] [3]: 2.37

Substance: RWRRHKHFKRPHRKHKK [Mut 332]
- ratio, Mutant[Relative growth]/Orignal[Relative growth] [3]: 2.438

Substance: RWRRHKHFKRPHRKHKRGSC
- Avg MIC ± SD, BS [5]: 20 ± 0.3 µM
- Avg MIC ± SD, PA [1]: 27 ± 2.3 µM
- Avg MIC ± SD, SM [2]: >100 µM
- Avg MIC ± SD, SA [8]: 28 ± 1.5 µM

Substance: RWRRHKHFKRPHRKTKR [Mut 297]
- ratio, Mutant[Relative growth]/Orignal[Relative growth] [3]: 2.339

Substance: RWRRHKHFKRPHRKVKR [Mut 300]
- ratio, Mutant[Relative growth]/Orignal[Relative growth] [3]: 1.453

Substance: RWRRHKHFKRPYRKHKR [Mut 239]
- ratio, Mutant[Relative growth]/Orignal[Relative growth] [3]: 2.12

Substance: RWRRHKHFKRRHRKHKR [Mut 202]
- ratio, Mutant[Relative growth]/Orignal[Relative growth] [9]: 1.3565

Substance: RWRRHKHFRRPHRKHKR [Mut 162]
- ratio, Mutant[Relative growth]/Orignal[Relative growth] [3]: 2.125

Substance: RWRRHKHKKRPHRKHKR [Mut 152]
- ratio, Mutant[Relative growth]/Orignal[Relative growth] [3]: 2.049

Substance: RWRRHKHLKRPHRKHKR [Mut 151]
- ratio, Mutant[Relative growth]/Orignal[Relative growth] [3]: 1.312

Substance: RWRRHKHMKRPHRKHKR [Mut 153]
- ratio, Mutant[Relative growth]/Orignal[Relative growth] [3]: 2.293

Substance: RWRRHKHPKRPHRKHKR [Mut 155]
- ratio, Mutant[Relative growth]/Orignal[Relative growth] [3]: 2.359

Substance: RWRRHKRFKRPHRKHKR [Mut 122]
- ratio, Mutant[Relative growth]/Orignal[Relative growth] [3]: 17.45
- ratio, Mutant[Relative growth]/Orignal[Relative growth] [9]: 3.121

Substance: RWRRHKVFKRPHRKHKR [Mut 140]
- ratio, Mutant[Relative growth]/Orignal[Relative growth] [3]: 1.658

Substance: RWRRHKWFKRPHRKHKR [Mut 138]
- ratio, Mutant[Relative growth]/Orignal[Relative growth] [9]: 1.315

Substance: RWRRHKYFKRPHRKHKR [Mut 139]
- ratio, Mutant[Relative growth]/Orignal[Relative growth] [3]: 2.136
- ratio, Mutant[Relative growth]/Orignal[Relative growth] [9]: 1.164

Substance: RWRRHKd-KFKRPHRKHKR (RWRRHK[dK]FKRPHRKHKR) [Mut 125]
- ratio, Mutant[Relative growth]/Orignal[Relative growth] [3]: 1.593

Substance: RWRRHLHFKRPHRKHKR [Mut 111]
- ratio, Mutant[Relative growth]/Orignal[Relative growth] [9]: 1.71

Substance: RWRRHRHFKRPHRKHKR [Mut 102]
- ratio, Mutant[Relative growth]/Orignal[Relative growth] [9]: 1.077

Substance: RWRRHVHFKRPHRKHKR [Mut 120]
- ratio, Mutant[Relative growth]/Orignal[Relative growth] [9]: 3.684

Substance: RWRRIKHFKRPHRKHKR [Mut 90]
- ratio, Mutant[Relative growth]/Orignal[Relative growth] [3]: 1.747

Substance: RWRRMKHFKRPHRKHKR [Mut 93]
- ratio, Mutant[Relative growth]/Orignal[Relative growth] [9]: 1.035

Substance: RWRRNKHFKRPHRKHKR [Mut 83]
- ratio, Mutant[Relative growth]/Orignal[Relative growth] [3]: 13.15

Substance: RWRRPKHFKRPHRKHKR [Mut 95]
- ratio, Mutant[Relative growth]/Orignal[Relative growth] [3]: 9.077

Substance: RWRRWKHFKRPHRKHKR [Mut 98]
- ratio, Mutant[Relative growth]/Orignal[Relative growth] [9]: 1.183

Substance: d-KWRRHKHFKRPHRKHKR ([dK]WRRHKHFKRPHRKHKR; not fully specified (some residues)) [Mut 5]
- ratio, Mutant[Relative growth]/Orignal[Relative growth] [3]: 1.308
